For one series, the system named is Vibrio anguillarum. The series is described as follows: Antibacterial activity against Vibrio anguillarum assessed as bacterial growth inhibition incubated for 24 hrs by absorbance based analysis. In kind it is functional.
The subject of the next series is Vibrio parahaemolyticus. The series is described as follows: Antibacterial activity against Vibrio parahaemolyticus assessed as bacterial growth inhibition incubated for 24 hrs by absorbance based analysis. Type of series: functional.
In the next series the test system is Vibrio alginolyticus. The series is described as follows: Antibacterial activity against Vibrio alginolyticus assessed as bacterial growth inhibition incubated for 24 hrs by absorbance based analysis. Type of series: functional.
In another series the test system is Hepatitis C virus. Kind of series: Antiviral activity against Hepatitis C virus infected in human Huh7.5 cells assessed as inhibition of viral replication. In kind it is functional, organism-based, Hepacivirus hominis.
For the next series, the system named is Colletotrichum acutatum. Kind of series: Antifungal activity against Colletotrichum acutatum assessed as fungal growth inhibition by modified broth dilution. Type of series: functional.
For a further series, the system named is Fusarium graminearum. Kind of series: Antifungal activity against Fusarium graminearum assessed as fungal growth inhibition by modified broth dilution. In kind it is functional. On the technique in general: Broth dilution looks for growth in wells or tubes with falling amounts of substance.
A further series relates to Botrytis cinerea. Kind of series: Antifungal activity against Botrytis cinerea assessed as fungal growth inhibition by modified broth dilution. In kind it is functional.
The test system of a further series is Phytophthora nicotianae. Kind of series: Antifungal activity against Phytophthora parasitica assessed as fungal growth inhibition by modified broth dilution. Type of series: functional.
The next series concerns Verticillium dahliae. Kind of series: Antifungal activity against Verticillium dahliae assessed as fungal growth inhibition by modified broth dilution. In kind it is functional.
A further series deals with Sclerotinia sclerotiorum. The series is described as follows: Antifungal activity against Sclerotinia sclerotiorum assessed as fungal growth inhibition by modified broth dilution. Type of series: functional.
The next series relates to Bipolaris maydis. Kind of series: Antifungal activity against Bipolaris maydis assessed as fungal growth inhibition by modified broth dilution. In kind it is functional.
The next series has as its system Candida albicans. The series is described as follows: Antifungal activity against Candida albicans assessed as fungal growth inhibition incubated for 24 hrs by absorbance based analysis. Type of series: functional.
In a further series the test system is HL-60. The series is described as follows: Cytotoxicity against human HL-60 cells assessed as cell growth inhibition measured after 24 hrs by MTT assay. Type of series: functional, cell-based. As to conditions: HL-60, 24 h. A general note: Tetrazolium assays rely on reduction of a dye to a coloured formazan, in cell work by metabolically active cells.
The next series concerns THP-1. Kind of series: Cytotoxicity against human THP-1 cells assessed as cell growth inhibition measured after 24 hrs by MTT assay. In kind it is functional, cell-based. The conditions noted are these: THP-1, 24 h.
A short description of series [1]: Cytotoxicity against human Caco-2 cells assessed as cell growth inhibition measured after 24 hrs by MTT assay. Type of series: toxicity, cell-based.
For a further series, the target named is Beta-secretase 1 (Homo sapiens, UniProt P56817). The series is described as follows: Inhibition of BACE1 (unknown origin) using […] incubated in dark for 1 hr by fluorescence based analysis.
For a further series, the system named is Bipolaris oryzae. Kind of series: Antifungal activity against Cochliobolus miyabeanus assessed as fungal growth inhibition measured after 24 hrs by microscopic analysis. In kind it is functional, organism-based.

Converted amounts (≈) assume the structure as drawn.

Chain of Beta-secretase 1 (P56817 whole entry): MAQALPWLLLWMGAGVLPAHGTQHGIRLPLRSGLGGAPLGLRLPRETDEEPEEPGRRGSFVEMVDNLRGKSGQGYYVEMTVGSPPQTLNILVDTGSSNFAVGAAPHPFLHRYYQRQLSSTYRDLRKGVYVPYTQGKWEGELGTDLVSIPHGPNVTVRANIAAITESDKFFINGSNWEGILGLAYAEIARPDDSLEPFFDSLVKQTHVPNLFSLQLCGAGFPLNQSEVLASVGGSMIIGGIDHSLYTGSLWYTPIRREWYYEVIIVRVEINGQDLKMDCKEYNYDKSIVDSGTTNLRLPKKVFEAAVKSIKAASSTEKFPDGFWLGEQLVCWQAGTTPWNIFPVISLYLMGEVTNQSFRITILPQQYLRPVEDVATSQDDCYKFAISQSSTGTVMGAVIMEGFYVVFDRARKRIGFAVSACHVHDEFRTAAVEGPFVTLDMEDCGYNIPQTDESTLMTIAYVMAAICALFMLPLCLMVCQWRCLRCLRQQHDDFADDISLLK

As a reminder, the MIC is the least concentration at which growth counts as inhibited. For the compound `CC(C)(O)[C@H](O)CC[C@]1(C)[C@@H](O)CC[C@@]2(C)[C@H]1CC[C@H]1Cc3c([nH]c4ccccc34)[C@@]12C`, the minimal inhibitory concentration (MIC) in the series on Vibrio anguillarum was 3.1 µM (≈ 1.36 µg/mL); with Vibrio parahaemolyticus, 6.3 µM (≈ 2.77 µg/mL); in the series on Vibrio alginolyticus, 3.1 µM (≈ 1.36 µg/mL).

In general, IC50 refers to the concentration at which inhibition is half-maximal. Consider `CC1=C(O)C(=O)[C@@]23[C@H](C)CC[C@@H]2[C@H](C)CO[C@]32Oc3cc(O)cc(CO)c3C=C12`, for which, in the series with Hepatitis C virus, the concentration for half-maximal inhibition (IC50) amounted to 9.5 µM.

On to `CC(C)=CCc1ccc2c3c([nH]c2c1)[C@@]1(C)[C@@H](CC[C@@]2(O)[C@@]45O[C@@H]4[C@H](O)[C@@H](C(C)(C)O)O[C@H]5CC[C@@]21C)C3`, for which the MIC with Colletotrichum acutatum, in the series with Fusarium graminearum, in the series with Botrytis cinerea, with Phytophthora nicotianae, in the series on Verticillium dahliae and with Sclerotinia sclerotiorum was 25 µg/mL (≈ 47.9 µM) in each case. Besides, in the series with Bipolaris maydis, the MIC worked out at 25 µg/mL (≈ 47.9 µM).

For the compound `CC(C)(O)[C@@H]1C[C@@H](O)[C@]2(C(=O)O)[C@H](CC[C@@]3(C)[C@H]2CC[C@H]2Cc4c([nH]c5ccccc45)[C@@]23C)O1`, the MIC in the series on Candida albicans came to 12.5 µg/mL (≈ 26.7 µM).

Take `C=C1[C@@]2(C)C[C@H]3[C@@]4(C)C(=CC[C@]3(C)[C@]1(C(=O)OC)C(=O)[C@@](C)(O)C2=O)C(C)(C)C(=O)C[C@H]4O` [BERKELEYTRIONE]: the IC50 in the series on HL-60 amounted to 3.4 µM; with THP-1, 4.3 µM. Further, the concentration for half-maximal inhibition (IC50) at 24 h in series [1] was found to be 10.5 µM.

On Beta-secretase 1, `C=C1[C@@]23C(=O)O[C@H](C)[C@@]2(O)C(=O)O[C@]1(C)[C@@H](O)C1=C2CO[C@H]4CC(=O)OC(C)(C)[C@@]24CC[C@@]13C` had an IC50 of 0.078 µM.

For the compound `C/C=C(\C)C(=O)[C@H](C)C1=CC(=O)C2=C(O[C@@]3(C)CC[C@H]4OC(C(C)(C)O)CC[C@]4(C)[C@H]3C2)C1=O` (some centres not stated), the half-inhibitory concentration (IC50) in the series on Bipolaris oryzae worked out at 0.1 µg/mL (≈ 0.212 µM).

For the origin of these results see ChEMBL document CHEMBL5113368, “Meroterpenoids produced by fungi: Occurrence, structural diversity, biological activities, and their molecular targets” (Eur J Med Chem, 2021).
